According to patent US20100311677A1, “Active Ingredient Combinations Having Insecticidal and Acaricidal Properties” (Bayer CropScience AG, priority 2007, published 2010):

How the values were obtained:
[1] = system: Myzus persicae; assay: Myzus persicae test (Example C), sprayed cabbage leaves; format: in vivo; conditions: alone; for pest or weed control at 0.16 g/ha / pest or weed control at 0.8 g/ha / pest or weed control at 4 g/ha / pest or weed control at 0.032 g/ha: Myzus persicae, 144 h, read-out: Kill in % after 6d; for pest or weed control at 0.16 g/ha / pest or weed control at 0.8 g/ha / pest or weed control at 4 g/ha / Kill in % after 6d / pest or weed control at 0.032 g/ha: after 6 d
[2] = system: Phaedon cochleariae; assay: Phaedon cochleariae larvae test (Example E), sprayed cabbage leaves; conditions: for Kill in % after 2d: alone
[3] = system: Tetranychus urticae; assay: Tetranychus urticae test (OP-resistant/spray treatment) (Example G), bean leaf disks; format: in vivo; conditions: for pest or weed control at 0.8 g/ha / pest or weed control at 20 g/ha / pest or weed control at 4 g/ha: Tetranychus urticae, foliar, 144 h, read-out: Kill in % after 6 d; for pest or weed control at 0.8 g/ha / Kill in % after 6d / pest or weed control at 20 g/ha / pest or weed control at 4 g/ha: active compound alone, after 6 d; for Kill in % after 2d: alone
Protocol: Tetranychus urticae Test (OP-Resistant/Spray Treatment)
After the desired period of time, the activity in % is determined.

[4] = Phaedon cochleariae, in Brassica oleracea, 144 h, read-out: Kill in % after 6d

Molecule: abamectin [abamectin (60)]
- Kill in % after 1d ([1]; 20 g/ha): 5%

Molecule: C/C(=N\C#N)N(C)Cc1ccc(Cl)nc1 [acetamiprid (25), acetamiprid]
- pest or weed control at 0.16 g/ha ([1]; 0.16 g/ha): 0%
- pest or weed control at 0.8 g/ha [2, 4]: 0%
- pest or weed control at 0.8 g/ha ([3]; 0.8 g/ha): 0%

Molecule: CNC(=O)c1cc(C#N)cc(C)c1NC(=O)c1cc(Br)nn1-c1ncccc1Cl [Cyazypyr (57), Cyazypyr]
- Kill in % after 1d ([1]; 4 g/ha): 5%
- pest or weed control at 0.16 g/ha [2, 4]: 0%

Molecule: profenofos [profenofos (114)]
- Kill in % after 1d ([1]; 0.8 g/ha): 0%
- Kill in % after 6d ([3]; 20 g/ha): 0%

Molecule: COc1cccc(C(=O)NN(C(=O)c2cc(C)cc(C)c2)C(C)(C)C)c1C [methoxyfenozide (44), methoxyfenozide]
- pest or weed control at 0.8 g/ha ([1]; 0.8 g/ha): 0%
- pest or weed control at 20 g/ha ([3]; 20 g/ha): 0%

Molecule: O=C(NC(=O)c1c(F)cccc1F)Nc1ccc(Oc2ccc(C(F)(F)F)cc2Cl)cc1F [flufenoxuron (38), flufenoxuron]
- pest or weed control at 4 g/ha [2, 4]: 0%
- pest or weed control at 20 g/ha ([3]; 20 g/ha): 0%

Molecule: Nc1nc(N)nc(NC2CC2)n1 [cyromazine (43), cyromazine]
- pest or weed control at 0.8 g/ha ([1]; 0.8 g/ha): 0%
- pest or weed control at 100 g/ha [2, 4]: 0%
- pest or weed control at 20 g/ha ([3]; 20 g/ha): 0%

Molecule: CNC(=O)O/N=C/C(C)(C)SC [aldicarb (108), aldicarb]
- Kill in % after 1d ([1]; 4 g/ha): 30%

Molecule: N#Cc1nn(-c2c(Cl)cc(C(F)(F)F)cc2Cl)c(N)c1[S+]([O-])C(F)(F)F (stereo not drawn) [fipronil (50), fipronil]
- pest or weed control at 4 g/ha ([1]; 4 g/ha): 0%

Molecule: CNC(=O)Oc1cc(C)c(SC)c(C)c1 [methiocarb (110), methiocarb]
- pest or weed control at 4 g/ha [2, 4]: 0%

Molecule: FC(F)(F)c1ccc(OCCCOc2c(Cl)cc(OCC=C(Cl)Cl)cc2Cl)nc1 [pyridalyl (99)]
- Kill in % after 6d ([3]; 20 g/ha): 0%

Molecule: CC1(C)C(C=C(Cl)Cl)C1C(=O)OC(C#N)c1ccc(F)c(Oc2ccccc2)c1 (stereo not drawn) [beta-cyfluthrin (3), betacyfluthrin]
- pest or weed control at 0.16 g/ha ([1]; 0.16 g/ha): 0%
- pest or weed control at 0.8 g/ha [2, 4]: 17%
- pest or weed control at 0.8 g/ha ([3]; 0.8 g/ha): 0%

Molecule: CNC(=O)c1cc(Cl)cc(C)c1NC(=O)c1cc(Br)nn1-c1ncccc1Cl [Rynaxapyr (56), chlorantraniliprole]
- pest or weed control at 0.16 g/ha ([1]; 0.16 g/ha): 0%
- pest or weed control at 4 g/ha ([3]; 4 g/ha): 0%

Molecule: CN/C(=N/CC1CCOC1)N[N+](=O)[O-] (stereo not drawn) [dinotefuran (29)]
- Kill in % after 6d ([3]; 4 g/ha): 0%

Molecule: CC(C)c1cc(Oc2ccccc2)cc(C(C)C)c1NC(=S)NC(C)(C)C [diafenthiuron (76), diafenthiuron]
- pest or weed control at 0.8 g/ha ([1]; 0.8 g/ha): 0%
- pest or weed control at 20 g/ha [2, 4]: 0%
- pest or weed control at 0.8 g/ha ([3]; 0.8 g/ha): 30%

Molecule: O=S1OCC2C(CO1)C1(Cl)C(Cl)=C(Cl)C2(Cl)C1(Cl)Cl (stereo not drawn) [endosulfan (49), endosulfan]
- pest or weed control at 4 g/ha ([1]; 4 g/ha): 0%
- pest or weed control at 20 g/ha [2, 4]: 33%
- Kill in % after 2d ([3]; 100 g/ha): 0%

Molecule: Cc1ccc(/N=C/N(C)/C=N/c2ccc(C)cc2C)c(C)c1 [amitraz (86), amitraz]
- pest or weed control at 0.8 g/ha ([1]; 0.8 g/ha): 0%
- pest or weed control at 100 g/ha [2, 4]: 0%
- Kill in % after 2d ([3]; 4 g/ha): 0%

Molecule: CC(C)C(C(=O)OC(C#N)c1cccc(Oc2ccccc2)c1)c1ccc(Cl)cc1 (stereo not drawn) [esfenvalerate (7), esfenvalerate]
- Kill in % after 1d ([1]; 0.16 g/ha): 0%
- pest or weed control at 4 g/ha [2, 4]: 83%
- pest or weed control at 0.8 g/ha ([3]; 0.8 g/ha): 0%

Molecule: CCc1nn(C)c(C(=O)NCc2ccc(C(C)(C)C)cc2)c1Cl [tebufenpyrad (64), tebufenpyrad]
- pest or weed control at 0.8 g/ha ([1]; 0.8 g/ha): 0%

Molecule: chlorpyrifos [chlorpyrifos (95)]
- Kill in % after 6d ([1]; 0.8 g/ha): 0%
- Kill in % after 6d ([3]; 20 g/ha): 0%

Molecule: CN/C(=N\[N+](=O)[O-])NCc1cnc(Cl)s1 [clothianidin (30), clothianidin]
- pest or weed control at 0.032 g/ha [1]: 0%
- pest or weed control at 0.8 g/ha ([3]; 0.8 g/ha): 0%

Molecule: N#CCNC(=O)c1cnccc1C(F)(F)F [flonicamid (89), flonicamid]
- Kill in % after 2d ([3]; 100 g/ha): 0%

Molecule: O=C1C=C(N(Cc2ccc(Cl)nc2)CC(F)F)CO1 [compound (101)]
- pest or weed control at 0.8 g/ha ([1]; 0.8 g/ha): 50%
- pest or weed control at 20 g/ha ([3]; 20 g/ha): 0%

Molecule: Cc1cc(C)c(-n2cnc(C(F)(F)F)n2)cc1SOCC(F)(F)F [compound (106)]
- pest or weed control at 4 g/ha ([1]; 4 g/ha): 0%

Molecule: COCCOC(=O)C(C#N)(C(=O)c1ccccc1C(F)(F)F)c1ccc(C(C)(C)C)cc1 (stereo not drawn) [cyflumetofen (72), 2-methoxyethyl alpha-cyano-alpha-[4-(1,1-dimethylethyl)phenyl]-beta-oxo-2-(trifluoromethyl)benzenepropanoate]
- pest or weed control at 4 g/ha ([1]; 4 g/ha): 0%
- pest or weed control at 4 g/ha ([3]; 4 g/ha): 80%

Molecule: carbosulfan [carbosulfan (109)]
- Kill in % after 1d ([1]; 4 g/ha): 0%

Molecule: Cc1cc(C)c(C2=C(OC(=O)CC(C)(C)C)C3(CCCC3)OC2=O)c(C)c1 [spiromesifen (97), spiromesifen]
- pest or weed control at 0.8 g/ha ([1]; 0.8 g/ha): 0%

Molecule: CC1=NNC(=O)N(/N=C/c2cccnc2)C1 [pymetrozine (88), pymetrozine]
- Kill in % after 1d ([1]; 20 g/ha): 20%
- pest or weed control at 100 g/ha [2, 4]: 0%
- pest or weed control at 20 g/ha ([3]; 20 g/ha): 0%

Molecule: N#C/N=C1\SCCN1Cc1ccc(Cl)nc1 [thiacloprid (28), thiacloprid]
- pest or weed control at 0.032 g/ha [1]: 0%
- Kill in % after 2d ([2]; 4 g/ha): 0%
- pest or weed control at 0.8 g/ha ([3]; 0.8 g/ha): 0%

Molecule: CC1(C)C(C=C(Br)Br)C1C(=O)OC(C#N)c1cccc(Oc2ccccc2)c1 (stereo not drawn) [deltamethrin (6), deltamethrin]
- Kill in % after 1d ([1]; 0.16 g/ha): 40%
- pest or weed control at 0.8 g/ha [2, 4]: 50%
- pest or weed control at 0.8 g/ha ([3]; 0.8 g/ha): 0%

Molecule: Cc1nn(C)c(/C(OC(=O)C(C)(C)C)=C(\C#N)c2ccc(C(C)(C)C)cc2)c1C [cyenopyrafen (71), (1E)-2-cyano-2-[4-(1,1-dimethylethyl)phenyl]-1-(1,3,4-trimethyl-1H-pyrazol-5-yl)ethenyl 2,2-dimethylpropanoate]
- pest or weed control at 0.8 g/ha ([1]; 0.8 g/ha): 0%

Molecule: CN1COCN(Cc2cnc(Cl)s2)/C1=N/[N+](=O)[O-] [thiamethoxam (26), thiamethoxam]
- pest or weed control at 0.032 g/ha [1]: 0%

Molecule: CC(c1ccc(C(F)(F)F)nc1)S(C)(=O)=NC#N (stereo not drawn) [II-29-29]
- pest or weed control at 20 g/ha ([3]; 20 g/ha): 0%

Molecule: CC(COc1ccc(Oc2ccccc2)cc1)Oc1ccccn1 (stereo not drawn) [pyriproxifen (90), pyriproxyfen]
- pest or weed control at 0.8 g/ha ([1]; 0.8 g/ha): 0%
- pest or weed control at 100 g/ha [2, 4]: 0%
- pest or weed control at 20 g/ha ([3]; 20 g/ha): 0%

Molecule: Cc1nn(C)c(Oc2ccccc2)c1C=NOCc1ccc(C(=O)OC(C)(C)C)cc1 [fenpyroximate (65), fenpyroximate]
- pest or weed control at 0.8 g/ha ([1]; 0.8 g/ha): 0%
- Kill in % after 2d ([3]; 0.8 g/ha): 10%

Molecule: CCOCn1c(-c2ccc(Cl)cc2)c(C#N)c(Br)c1C(F)(F)F [chlorfenapyr (92), chlorfenapyr]
- pest or weed control at 0.8 g/ha ([1]; 0.8 g/ha): 0%
- pest or weed control at 4 g/ha ([3]; 4 g/ha): 70%

Molecule: O=C(NC(=O)c1c(F)cccc1F)Nc1ccc(OC(F)(F)C(F)OC(F)(F)F)c(Cl)c1 (stereo not drawn) [novaluron (37), novaluron]
- pest or weed control at 4 g/ha [2, 4]: 83%

Molecule: pyridaben [pyridaben (66)]
- Kill in % after 6d ([1]; 0.8 g/ha): 0%
- Kill in % after 2d ([2]; 20 g/ha): 33%

Molecule: O=[N+]([O-])/N=C1\NCCN1Cc1ccc(Cl)nc1 [imidacloprid (24), imidacloprid]
- pest or weed control at 0.032 g/ha [1]: 0%
- pest or weed control at 0.8 g/ha ([3]; 0.8 g/ha): 0%

Molecule: CC[S+]([O-])c1c(C#N)nn(-c2c(Cl)cc(C(F)(F)F)cc2Cl)c1N (stereo not drawn) [ethiprole (51)]
- Kill in % after 6d ([3]; 100 g/ha): 0%

Molecule: CN(Cc1ccc(Cl)nc1)C1=CC(=O)OC1 [compound (100)]
- pest or weed control at 0.16 g/ha ([1]; 0.16 g/ha): 0%

Molecule: CCC(C)(C)C(=O)OC1=C(c2ccc(Cl)cc2Cl)C(=O)OC12CCCCC2 [spirodiclofen (96), spirodiclofen]
- pest or weed control at 0.8 g/ha ([1]; 0.8 g/ha): 0%
- pest or weed control at 100 g/ha [2, 4]: 0%
